Assay results taken from US8470820B2, “Nitrogen-containing heteroaryl derivatives” (Hoffman-La Roche Inc., priority 2010, dated 2013).
pIC50: −log10 of the molar value.

Target: human PDE10A (Homo sapiens (Human), UniProt Q9Y233)
Assay: human PDE10A full length Scintillation Proximity Assay (SPA)
Assay type: biochemical
Conditions: 50 nM cGMP and 50 nM [3H]-cGMP, 20 minutes at room temperature, read-out: PDE10A inhibition IC50
Experimental: The following test was carried out in order to determine the activity of the compounds of the present invention. PDE10 activity of the compounds of the present invention was determined using a Scintillation Proximity Assay (SPA)-based method similar to the one previously described (Fawcett, L. et al., Proc Natl Acad Sci USA (2000) 97(7):3702-3707).
The human PDE10A full length assay was performed in 96-well micro titer plates. The reaction mixture of 50 μl contained 20 mM HEPES pH=7.5/10 mM MgCl2/0.05 mg/ml BSA (Sigma cat. # A-7906), 50 nM cGMP (Sigma, cat. # G6129) and 50 nM [^3H]-cGMP (GE Healthcare, cat. # TRK392 S.A. 13.2Ci/mmol), 3.75 ng/well PDE10A enzyme (Enzo Life Science, Lausen, Switzerland cat # SE-534) with or without a specific test compound. A range of concentrations of the potential inhibitor was used to generate data for calculating the concentration of inhibitor resulting in 50% of the effect (e.g. IC50, the concentration of the competitor inhibiting PDE10A activity by 50%). Non-specific activity was tested without the enzyme. The reaction was initiated by the addition of the substrate solution (cGMP and [^3H]-cGMP) and allowed to progress for 20 minutes at room temperature. The reaction was terminated by adding 25 μA of YSi-SPA scintillation beads (GE Healthcare, cat. # RPNQ0150) in 18 mM zinc sulphate solution (stop reagent). After 1 h under shaking, the plate was centrifuged one minute at 170 g to allow beads to settle. Afterwards, radioactive counts were measured on a Perkin Elmer TopCount Scintillation plate reader.

Sequence of human PDE10A (Q9Y233 other isoform, or with tags, fused parts or gaps): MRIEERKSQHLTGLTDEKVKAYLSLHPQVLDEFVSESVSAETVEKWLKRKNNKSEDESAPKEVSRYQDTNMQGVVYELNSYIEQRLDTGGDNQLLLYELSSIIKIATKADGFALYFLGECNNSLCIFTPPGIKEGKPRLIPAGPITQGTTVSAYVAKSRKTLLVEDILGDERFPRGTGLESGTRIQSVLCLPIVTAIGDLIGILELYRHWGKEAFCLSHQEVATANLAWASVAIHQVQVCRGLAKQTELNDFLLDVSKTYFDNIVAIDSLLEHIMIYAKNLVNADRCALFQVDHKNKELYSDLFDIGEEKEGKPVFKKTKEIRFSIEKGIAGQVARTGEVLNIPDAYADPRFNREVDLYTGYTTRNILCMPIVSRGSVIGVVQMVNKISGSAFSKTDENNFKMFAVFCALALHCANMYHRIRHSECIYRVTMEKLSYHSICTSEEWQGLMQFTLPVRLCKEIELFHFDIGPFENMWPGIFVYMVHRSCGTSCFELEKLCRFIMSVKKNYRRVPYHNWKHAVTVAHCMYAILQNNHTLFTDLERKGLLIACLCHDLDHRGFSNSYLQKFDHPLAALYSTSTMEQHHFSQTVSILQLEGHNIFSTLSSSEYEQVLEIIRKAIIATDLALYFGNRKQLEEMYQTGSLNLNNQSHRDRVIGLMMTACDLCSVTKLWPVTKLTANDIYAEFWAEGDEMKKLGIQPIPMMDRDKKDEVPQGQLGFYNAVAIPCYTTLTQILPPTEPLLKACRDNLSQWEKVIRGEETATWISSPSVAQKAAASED

| SMILES | pIC50 |
| --- | --- |
| O=C(Nc1nnc(-c2ccccn2)o1)c1nc(C2CC2)ccc1Nc1cncnc1 [Example 64, 6-Cyclopropyl-3-(pyrimidin-5-ylamino)-pyridine-2-carboxylic acid (5-pyridin-2-yl-[1,3,4]oxadiazol-2-yl)-amide] | 5.69 |
| O=C(Nc1cnc(-c2ccccn2)s1)c1nc(C2CC2)ccc1Nc1cncnc1 [Example 62, 6-Cyclopropyl-3-(pyrimidin-5-ylamino)-pyridine-2-carboxylic acid (2-pyridin-2-yl-thiazol-5-yl)-amide] | 8.70 |
| O=C(Nc1cc(-c2ccccc2)on1)c1nc(C2CC2)ccc1Nc1cncnc1 [Example 47, 6-Cyclopropyl-3-(pyrimidin-5-ylamino)-pyridine-2-carboxylic acid (5-phenyl-isoxazol-3-yl)-amide] | 5.84 |
| Cc1ccc(Nc2cncnc2)c(C(=O)Nc2ccn(-c3ccccn3)n2)n1 [Example 4, 6-Methyl-3-(pyrimidin-5-ylamino)-pyridine-2-carboxylic acid (1-pyridin-2-yl-1H-pyrazol-3-yl)-amide] | 6.43 |
| Cn1nc(-c2ccc3ccccc3n2)cc1NC(=O)c1nc(C2CC2)ccc1Nc1cncnc1 [Example 40, 6-Cyclopropyl-3-(pyrimidin-5-ylamino)-pyridine-2-carboxylic acid (2-methyl-5-quinolin-2-yl-2H-pyrazol-3-yl)-amide] | > 9.00 |
| O=C(Nc1ccn(-c2ccncc2)n1)c1nc(C2CC2)ccc1Nc1cncnc1 [Example 7, 6-Cyclopropyl-3-(pyrimidin-5-ylamino)-pyridine-2-carboxylic acid (1-pyridin-4-yl-1H-pyrazol-3-yl)-amide] | 8.00 |
| O=C(Nc1cc(-c2ccccn2)nn1C1CCCCC1)c1nc(C2CC2)ccc1Nc1cncnc1 [Example 14, 6-Cyclopropyl-3-(pyrimidin-5-ylamino)-pyridine-2-carboxylic acid (2-cyclohexyl-5-pyridin-2-yl-2H-pyrazol-3-yl)-amide] | 9.00 |
| O=C(Nc1cc(-c2ccccn2)nn1C1CCOCC1)c1nc(C2CC2)ccc1Nc1cncnc1 [Example 20, 6-Cyclopropyl-3-(pyrimidin-5-ylamino)-pyridine-2-carboxylic acid [5-pyridin-2-yl-2-(tetrahydro-pyran-4-yl)-2H-pyrazol-3-yl]-amide] | 9.00 |
| O=C(Nc1cc(-c2ccccn2)nn1CCN1CCOCC1)c1nc(C2CC2)ccc1Nc1cncnc1 [Example 16, 6-Cyclopropyl-3-(pyrimidin-5-ylamino)-pyridine-2-carboxylic acid [2-(2-morpholin-4-yl-ethyl)-5-pyridin-2-yl-2H-pyrazol-3-yl]-amide] | 8.70 |
| CC(C)Cn1nc(-c2ccccn2)cc1NC(=O)c1nc(C2CC2)ccc1Nc1cncnc1 [Example 28, 6-Cyclopropyl-3-(pyrimidin-5-ylamino)-pyridine-2-carboxylic acid (2-isobutyl-5-pyridin-2-yl-2H-pyrazol-3-yl)-amide] | 9.00 |
| O=C(Nc1cc(-c2ccccn2)nn1CC1CCCCC1)c1nc(C2CC2)ccc1Nc1cncnc1 [Example 32, 6-Cyclopropyl-3-(pyrimidin-5-ylamino)-pyridine-2-carboxylic acid (2-cyclohexylmethyl-5-pyridin-2-yl-2H-pyrazol-3-yl)-amide] | 9.00 |

The remaining lines, values ahead:

| pIC50 | SMILES |
| --- | --- |
| 6.21 | O=C(Nc1cc(-c2ccccc2)no1)c1nc(C2CC2)ccc1Nc1cncnc1 [Example 46, 6-Cyclopropyl-3-(pyrimidin-5-ylamino)-pyridine-2-carboxylic acid (3-phenyl-isoxazol-5-yl)-amide] |
| 6.49 | Cn1nc(NC(=O)c2nc(C3CC3)ccc2Nc2cncnc2)cc1-c1ccccn1 [Example 63, 6-Cyclopropyl-3-(pyrimidin-5-ylamino)-pyridine-2-carboxylic acid (1-methyl-5-pyridin-2-yl-1H-pyrazol-3-yl)-amide] |
| 9.00 | CN(C)CCn1nc(-c2ccccn2)cc1NC(=O)c1nc(C2CC2)ccc1Nc1cncnc1 [Example 12, 6-Cyclopropyl-3-(pyrimidin-5-ylamino)-pyridine-2-carboxylic acid [2-(2-dimethylamino-ethyl)-5-pyridin-2-yl-2H-pyrazol-3-yl]-amide] |
| 8.70 | O=C(Nc1cc(-c2ccccn2)nn1Cc1ccccc1)c1nc(C2CC2)ccc1Nc1cncnc1 [Example 29, 6-Cyclopropyl-3-(pyrimidin-5-ylamino)-pyridine-2-carboxylic acid (2-benzyl-5-pyridin-2-yl-2H-pyrazol-3-yl)-amide] |
| 8.40 | Cn1nc(-c2ccccn2)cc1NC(=O)c1nc(C(C)(C)C)ncc1Nc1cncnc1 [Example 55, 2-tert-Butyl-5-(pyrimidin-5-ylamino)-pyrimidine-4-carboxylic acid (2-methyl-5-pyridin-2-yl-2H-pyrazol-3-yl)-amide] |
| 7.70 | CC(C)c1ncc(Nc2cncnc2)c(C(=O)Nc2cc(-c3ccccn3)nn2C)n1 [Example 53, 2-Isopropyl-5-(pyrimidin-5-ylamino)-pyrimidine-4-carboxylic acid (2-methyl-5-pyridin-2-yl-2H-pyrazol-3-yl)-amide] |
| 8.70 | O=C(Nc1cc(-c2ccccn2)nn1CCO)c1nc(C2CC2)ccc1Nc1cncnc1 [Example 10, 6-Cyclopropyl-3-(pyrimidin-5-ylamino)-pyridine-2-carboxylic acid [2-(2-hydroxy-ethyl)-5-pyridin-2-yl-2H-pyrazol-3-yl]-amide] |
| 7.06 | Cn1nc(-c2ccccn2)cc1NC(=O)c1nc(C2CC2)ncc1Nc1cncnc1 [Example 54, 2-Cyclopropyl-5-(pyrimidin-5-ylamino)-pyrimidine-4-carboxylic acid (2-methyl-5-pyridin-2-yl-2H-pyrazol-3-yl)-amide] |
| 8.22 | Cn1nc(-c2ccccn2)cc1NC(=O)c1nc(C2CCCCC2)ncc1Nc1cncnc1 [Example 60, 2-Cyclohexyl-5-(pyrimidin-5-ylamino)-pyrimidine-4-carboxylic acid (2-methyl-5-pyridin-2-yl-2H-pyrazol-3-yl)-amide] |
| 7.32 | Cc1ccc(Nc2cncnc2)c(C(=O)Nc2ccn(-c3ccncc3)n2)n1 [Example 5, 6-Methyl-3-(pyrimidin-5-ylamino)-pyridine-2-carboxylic acid (1-pyridin-4-yl-1H-pyrazol-3-yl)-amide] |
| 5.73 | COc1ccc(-c2nnc(NC(=O)c3nc(C4CC4)ccc3Nc3cncnc3)s2)cc1 [Example 44, 6-Cyclopropyl-3-(pyrimidin-5-ylamino)-pyridine-2-carboxylic acid [5-(4-methoxy-phenyl)-[1,3,4]thiadiazol-2-yl]-amide] |
| 8.40 | CCOC(=O)Cn1nc(-c2ccccn2)cc1NC(=O)c1nc(C2CC2)ccc1Nc1cncnc1 [Example 15, (5-{[6-Cyclopropyl-3-(pyrimidin-5-ylamino)-pyridine-2-carbonyl]-amino}-3-pyridin-2-yl-pyrazol-1-yl)-acetic acid ethyl ester] |
| 8.15 | COCc1ccc(Nc2cncnc2)c(C(=O)Nc2cc(-c3ccccn3)nn2C)n1 [Example 59, 6-Methoxymethyl-3-(pyrimidin-5-ylamino)-pyridine-2-carboxylic acid (2-methyl-5-pyridin-2-yl-2H-pyrazol-3-yl)-amide] |
| 6.59 | COCc1ncc(Nc2cncnc2)c(C(=O)Nc2cc(-c3ccccn3)nn2C)n1 [Example 13, 2-Methoxymethyl-5-(pyrimidin-5-ylamino)-pyrimidine-4-carboxylic acid (2-methyl-5-pyridin-2-yl-2H-pyrazol-3-yl)-amide] |
